Data set [1] relates to HEL cells. Put plainly: Cytostatic activity, inhibition of HEL cell growth (CC50). To be noted: read-out: Cytotoxicity HEL cells CC50, concentration reducing cell viability/proliferation by 50%, 3 days.
The test system of data set [2] is human cytomegalovirus (HCMV) strain Davis. Put plainly: Inhibition of virus-induced cytopathicity, HCMV Davis, in HEL fibroblasts. The settings on record: read-out: Antiviral activity EC50 HCMV Davis strain. The format is cell-based.
Data set [3] concerns HEL cells. Briefly: Cytotoxicity, minimum cytotoxic concentration (cell morphology) in HEL cells. To be noted: minimum concentration causing microscopically detectable alteration of cell morphology.
The nature of data set [4]: in vitro. The settings on record: human.
In data set [5] the test system is TK− VZV strain 07-1. Briefly: microbe, parasite or virus in culture. The format is cell-based, varicella-zoster virus. To be noted: Human alphaherpesvirus 3, HEL, read-out: Antiviral activity EC50 VZV TK− strain.
The test system of data set [6] is varicella-zoster virus (VZV) strain Oka. Briefly: Inhibition of plaque formation, VZV TK+ Oka, in HEL fibroblasts. The format is cell-based. The settings on record: Human alphaherpesvirus 3, HEL, read-out: Antiviral activity EC50 VZV TK+ strain (OKA).
Data set [7] relates to human cytomegalovirus (HCMV) strain AD-169. Briefly: Inhibition of virus-induced cytopathicity, HCMV AD-169, in HEL fibroblasts. The data set is classed as cell-based. To be noted: read-out: Antiviral activity EC50 HCMV AD-169 strain. (Damage to the host cells serves as the signal in cytopathic effect assays.)
Data set [8] has as its system Vaccinia virus (strain Lederle, ATCC VR-118). Briefly: microbe, parasite or virus in culture. To be noted: Orthopoxvirus vaccinia, HEL 299, 96 h, read-out: Antiviral activity EC50 Vaccinia virus. The data set is classed as cell-based.
In data set [9] the test system is human adeno virus-2 (clinical isolate C251085). Put plainly: Inhibition of virus-induced cytopathicity, human adeno virus-2, in HEL 299 cells. The format is cell-based. To be noted: Human mastadenovirus C, 240 h, 10 days, cytopathicity reduced by 50%, read-out: Antiviral activity EC50 Adenovirus 2.
For data set [10], the system named is HEL 299 cells. To be noted: human.
The mark [11] stands for this setting: Human betaherpesvirus 5, AD169, HEL.
[12] abbreviates: Human betaherpesvirus 5, AD169, HEL cells, reduction of virus-induced cytopathicity by 50%.

Read-outs that look alike come from different tables or passages of the source.

In general, EC50 refers to the concentration needed to bring the measured effect to its halfway point. `CCCCCOC(=O)C[C@H](NP1(=O)CO[C@H](Cn2ccc(N)nc2=O)CO1)C(=O)OCCCCC` (stereo partly drawn) [Example 11, Diamyl {(5R)-5-[(4-amino-2-oxopyrimidin-1(2H)-yl)methyl]-2-oxido-1,4,2-dioxaphosphinan-2-yl}-L-aspartate]: the CC50 in data set [1] (Table 2) is more than 194000 nM. For the same compound, the EC50 turned out to be 3530 nM in data set [2] (Human betaherpesvirus 5, HEL); 1240 nM in data set [5]; 810 nM in data set [6]; 2680 nM in [7] (setting [11]). In addition, the “Cytotoxicity HEL cells MCC” value in data set [3] (Table 1) and in [3] (Table 2) was more than 19 in each case. The CC50 at 3 days in data set [4] (HEL cells) was more than 194000 nM.

Regarding `CCCCCOC(=O)[C@@H](NP(=O)(CO[C@H](CO)Cn1cnc2c(N)ncnc21)N[C@H](C(=O)OCCCCC)C(C)C)C(C)C` [Example 19, diamyl 2,2′-((((((S)-1-(6-amino-9H-purin-9-yl)-3-hydroxypropan-2-yl)oxy)methyl)phosphoryl)bis(azanediyl))(2S,2′S)-bis(3-methylbutanoate)], the EC50 in data set [2] (Human betaherpesvirus 5, HEL) was 72 nM; in data set [8] it was 42.5 nM; in data set [9] it was 13.5 nM; in [5], 0.95 nM; in data set [6] it was 1.5 nM; in data set [7] (setting [11]), 100 nM. In addition, in data set [10], the “Cytotoxicity MCC” value was not below 20. Also, the “Cytotoxicity HEL cells MCC” value in data set [3] (Table 1) and in data set [3] (Table 2) was 8.57 in each case. Further, in data set [4], the CC50 at 3 days came to 600 nM.

Take `CCCCCOC(=O)C[C@H](NP1(=O)CO[C@H](Cn2cnc3c(N)ncnc32)CO1)C(=O)OCCCCC` (stereo partly drawn) [Example 9, Diamyl {(5R)-5-[(6-amino-9H-purin-9-yl)methyl]-2-oxido-1,4,2-dioxaphosphinan-2-yl}-L-aspartate]: the concentration for a half-maximal effect (EC50) was 1620 nM in [2] (Human betaherpesvirus 5, HEL); 62 nM in data set [5]; 33 nM in [6]; 4390 nM in data set [7] (setting [11]). In addition, the “Cytotoxicity HEL cells MCC” value in data set [3] (Table 1) and in [3] (Table 2) was more than 18.5 each time. The compound also returned a CC50 at 3 days in [4] of 11600 nM.

As to `CCCCCOC(=O)[C@@H](NP1(=O)CO[C@@H](Cn2cnc3c(N)ncnc32)CO1)C(C)C` (stereo partly drawn) [Example 16, Amyl {(5S)-5-[(6-amino-9H-purin-9-yl)methyl]-2-oxido-1,4,2-dioxaphosphinan-2-yl}-L-valinate], the 50% effective concentration (EC50) came to 4.8 nM in [2] (Human betaherpesvirus 5, HEL); 1.5 nM in [5]; 0.57 nM in data set [6]; 5.9 nM in [7] (setting [11]). Further, the “Cytotoxicity HEL cells MCC” value in data set [3] (Table 1) and in data set [3] (Table 2) was 4.40 each time. The CC50 at 3 days in data set [4] came out at 7760 nM.

Take `CCCCCOC(=O)C[C@H](NP1(=O)CO[C@@H](Cn2ccc(N)nc2=O)CO1)C(=O)OCCCCC` (stereo partly drawn) [Example 10, Diamyl {(5S)-5-[(4-amino-2-oxopyrimidin-1(2H)-yl)methyl]-2-oxido-1,4,2-dioxaphosphinan-2-yl}-L-aspartate]: the concentration for a half-maximal effect (EC50) in [2] (Human betaherpesvirus 5, HEL) amounted to 19 nM; in data set [5], 6.3 nM; in data set [6], 5.5 nM; in data set [7] (setting [11]), 12 nM. Further, the “Cytotoxicity HEL cells MCC” value in data set [3] (Table 1) and in [3] (Table 2) was 19.4 throughout. In [4] (HEL cells), the CC50 at 3 days stood at 33100 nM.

`CCCCCOC(=O)[C@H](Cc1ccccc1)NP1(=O)CO[C@@H](Cn2cnc3c(N)ncnc32)CO1` (stereo partly drawn) [Example 12, Amyl ((5S)-5-((6-amino-9H-purin-9-yl)methyl)-2-oxido-1,4,2-dioxaphosphinan-2-yl)-L-phenylalaninate]: the 50% effective concentration (EC50) in data set [2] (Human betaherpesvirus 5, HEL) turned out to be 17 nM; in data set [5], 3.2 nM; in data set [6] it was 0.52 nM; in data set [7] (setting [11]) it was 31 nM. Also, the “Cytotoxicity HEL cells MCC” value in [3] (Table 1) and in data set [3] (Table 2) was 9.3 throughout. In data set [4], this compound had a CC50 at 3 days of 30600 nM.

Regarding `O=c1[nH]c(=O)n([C@H]2C[C@H](O)[C@@H](CO)O2)cc1/C=C/Br` [Brivudin, reference compound], the CC50 in data set [1] (Table 1) is more than 300000 nM. Further, the results for the half-maximal effective concentration (EC50) in data set [8], in data set [5] and in data set [6] were 5800 nM, 22100 nM and 53 nM, respectively. In addition, in data set [10], the “Cytotoxicity MCC” value is given as more than 250. The “Cytotoxicity HEL cells MCC” value in data set [3] (Table 1) and in [3] (Table 2) was more than 30.0 each time. The compound also showed a CC50 at 3 days in data set [4] of more than 300000 nM.

With `CCCCCOC(=O)[C@H](C)NP1(=O)CO[C@@H](Cn2cnc3c(N)ncnc32)CO1` (stereo partly drawn) [Example 14, Amyl ((5S)-5-((6-amino-9H-purin-9-yl)methyl)-2-oxido-1,4,2-dioxaphosphinan-2-yl)-L-alaninate], the half-maximal effective concentration (EC50) in data set [2] (Human betaherpesvirus 5, HEL) amounted to 65 nM; in data set [5], 4.3 nM; in data set [6], 2 nM; in data set [7] (setting [11]) it was 64 nM. Moreover, the “Cytotoxicity HEL cells MCC” value in data set [3] (Table 1) and in data set [3] (Table 2) was 23.5 throughout. Besides, the CC50 at 3 days in data set [4] was 3400 nM.

For `Nc1ccn(C[C@@H](CO)OCP(=O)(O)O)c(=O)n1` [Cidofovir, reference compound], the CC50 in [1] (Table 1) was more than 358000 nM. The EC50 in data set [2] (Human betaherpesvirus 5, HEL cells, reduction of virus-induced cytopathicity by 50%) stood at 840 nM; in data set [8], 50000 nM; in data set [9] it was 10000 nM; in [7] (setting [12]) it was 1600 nM. The “Cytotoxicity MCC” value in data set [10] is more than 250. In addition, the “Cytotoxicity HEL cells MCC” value in [3] (Table 1) and in data set [3] (Table 2) was more than 71.6 each time. In [4] (HEL cells), the CC50 at 3 days is more than 358000 nM.

On to `CCCCCOC(=O)[C@H](CC(C)C)NP1(=O)CO[C@@H](Cn2cnc3c(N)ncnc32)CO1` (stereo partly drawn) [Example 17, Amyl {(5S)-5-[(6-amino-9H-purin-9-yl)methyl]-2-oxido-1,4,2-dioxaphosphinan-2-yl}-L-leucinate], for which the EC50 was 3.8 nM in data set [2] (Human betaherpesvirus 5, HEL); 77.5 nM in [8]; 43.5 nM in data set [9]; 0.59 nM in [5]; 0.47 nM in data set [6]; 5.7 nM in data set [7] (setting [11]). Besides, in data set [10], the “Cytotoxicity MCC” value is on record as not below 0.8. The “Cytotoxicity HEL cells MCC” value in [3] (Table 1) and in data set [3] (Table 2) was 4.27 throughout. Also, the CC50 at 3 days in data set [4] came to 1620 nM.

Turning to `CCCCCOC(=O)[C@@H](NP1(=O)CO[C@@H](Cn2cnc3c(N)ncnc32)CO1)[C@@H](C)CC` (stereo partly drawn) [Example 18, Amyl {(5S)-5-[(6-amino-9H-purin-9-yl)methyl]-2-oxido-1,4,2-dioxaphosphinan-2-yl}-L-isoleucinate], the EC50 in data set [2] (Human betaherpesvirus 5, HEL) came out at 6.5 nM; in [5] it was 0.54 nM; in data set [6], 0.45 nM; in data set [7] (setting [11]), 7 nM. Moreover, the “Cytotoxicity HEL cells MCC” value in data set [3] (Table 1) and in [3] (Table 2) was 9.96 each time. This compound also displayed a CC50 at 3 days in data set [4] of 12000 nM.

For the compound `Nc1nc2c(ncn2CCC(CO)CO)c(=O)[nH]1` [Penciclovir, reference compound], the CC50 in [1] (Table 1) is more than 395000 nM. Further, the “Cytotoxicity HEL cells MCC” value in data set [3] (Table 1) is given as more than 79.0.

Consider `CCCCCOC(=O)C[C@H](NP1(=O)CO[C@@H](Cn2cnc3c(N)ncnc32)CO1)C(=O)OCCCCC` (stereo partly drawn) [Example 8, Diamyl {(5S)-5-[(6-amino-9H-purin-9-yl)methyl]-2-oxido-1,4,2-dioxaphosphinan-2-yl}-L-aspartate], for which the EC50 in data set [2] (Human betaherpesvirus 5, HEL) worked out at 9 nM; in data set [8], 77 nM; in data set [9], 183 nM; in [5], 1.5 nM; in data set [6], 1.4 nM; in data set [7] (setting [11]) it was 27 nM. Moreover, the “Cytotoxicity MCC” value in data set [10] is on record as not below 20. Besides, the “Cytotoxicity HEL cells MCC” value in data set [3] (Table 1) and in data set [3] (Table 2) was 13.6 each time. The compound further returned a CC50 at 3 days in data set [4] of 2730 nM.

Turning to `Nc1nc2c(ncn2COCCO)c(=O)[nH]1` [Acyclovir, reference compound], the “Cytotoxicity HEL cells MCC” value in [3] (Table 1) and in data set [3] (Table 2) was more than 88.8 in each case.

For the compound `CCCCCOC(=O)[C@H](CCSC)NP1(=O)CO[C@@H](Cn2cnc3c(N)ncnc32)CO1` (stereo partly drawn) [Example 13, Amyl ((5S)-5-((6-amino-9H-purin-9-yl)methyl)-2-oxido-1,4,2-dioxaphosphinan-2-yl)-L-methioninate], the EC50 in [2] (Human betaherpesvirus 5, HEL) stood at 29 nM; in data set [5] it was 4 nM; in [6], 2.6 nM; in data set [7] (setting [11]), 32 nM. Also, the “Cytotoxicity HEL cells MCC” value in data set [3] (Table 1) and in [3] (Table 2) was 4.11 in each case. This compound gave a CC50 at 3 days in [4] of 39600 nM.

Regarding `Nc1nc(O)c2ncn(COC(CO)CO)c2n1` [Ganciclovir, reference compound], the “Cytotoxicity HEL cells MCC” value in [3] (Table 1) and in [3] (Table 2) was more than 39.2 each time. The half-maximal effective concentration (EC50) in [7] (setting [12]) stood at 7400 nM.

Take `CCCCCOC(=O)CC[C@H](NP1(=O)CO[C@@H](Cn2cnc3c(N)ncnc32)CO1)C(=O)OCCCCC` (stereo partly drawn) [Example 15, Diamyl {(5S)-5-[(6-amino-9H-purin-9-yl)methyl]-2-oxido-1,4,2-dioxaphosphinan-2-yl}-L-glutamate]: the concentration for a half-maximal effect (EC50) in [2] (Human betaherpesvirus 5, HEL) was 7.6 nM; in data set [5], 0.95 nM; in data set [6], 0.58 nM; in data set [7] (setting [11]), 14 nM. For the same compound, the “Cytotoxicity HEL cells MCC” value in data set [3] (Table 1) and in data set [3] (Table 2) was 13.2 each time. For the same compound, in data set [4], the CC50 at 3 days was found to be 520 nM.

Values taken from patent US11040047B2, “Prodrugs of nucleoside phosphonates” (Katholieke Universiteit Leuven, priority 2017, dated 2021).
